For this experiment, the system named is CD2F1 mice, L1210 leukemia ip, survival T/C. Description: NCI In Vivo Anticancer Drug Screen. Data for tumor model L1210 Leukemia (intraperitoneal) in CD2F1 (CDF1) mice. The settings on record: higher = longer survival. A digest of the protocol: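 Each value reflects a quotient of treated over vehicle control outcomes in mice with a transplanted tumor.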
Where [1] appears, read: endpoint: mean survival time, dose: 50.0 mg/kg/injection, schedule: Q01DX009 (ip), vehicle: saline with Tween-80.
Setting [2] is: endpoint: mean survival time, dose: 100.0 mg/kg/injection, schedule: Q01DX009 (ip), vehicle: saline with Tween-80.
The mark [3] stands for this setting: endpoint: mean survival time, dose: 200.0 mg/kg/injection, schedule: Q01DX009 (ip), vehicle: saline with Tween-80.
Where [4] appears, read: endpoint: mean survival time, dose: 100.0 mg/kg/injection, schedule: Q04DX003 (ip), vehicle: saline with Tween-80.
Where [5] appears, read: endpoint: mean survival time, dose: 200.0 mg/kg/injection, schedule: Q04DX003 (ip), vehicle: saline with Tween-80.
The mark [6] stands for this setting: endpoint: mean survival time, dose: 400.0 mg/kg/injection, schedule: Q04DX003 (ip), vehicle: saline with Tween-80.
[7] abbreviates: endpoint: mean survival time, dose: 100.0 mg/kg/injection, schedule: Q01DX001 (ip), vehicle: saline.
The mark [8] stands for this setting: endpoint: mean survival time, dose: 200.0 mg/kg/injection, schedule: Q01DX001 (ip), vehicle: saline.
[9] abbreviates: endpoint: mean survival time, dose: 100.0 mg/kg/injection, schedule: Q01DX001 (ip), vehicle: saline with Tween-80.
Setting [10] is: endpoint: mean survival time, dose: 200.0 mg/kg/injection, schedule: Q01DX001 (ip), vehicle: saline with Tween-80.
Setting [11] is: endpoint: mean survival time, dose: 400.0 mg/kg/injection, schedule: Q01DX001 (ip), vehicle: saline with Tween-80.

Toxic doses and inconclusive results are not listed.

On to `COC1OC(CO)C(n2cnc3c2c(=O)n(C)c(=O)n3C)C=C1NC(C)=O` (stereo not given), for which the T/C is, setting by setting: (endpoint: mean survival time, dose: 12.5 mg/kg/injection, schedule: Q01DX005 (ip), vehicle: distilled water + Tween-80) 100 % of control; (endpoint: mean survival time, dose: 12.5 mg/kg/injection, schedule: Q01DX005 (ip), vehicle: water) 88 % of control; (endpoint: mean survival time, dose: 25.0 mg/kg/injection, schedule: Q01DX005 (ip), vehicle: distilled water + Tween-80) 96 % of control; (endpoint: mean survival time, dose: 25.0 mg/kg/injection, schedule: Q01DX005 (ip), vehicle: water) 96 % of control; (endpoint: mean survival time, dose: 50.0 mg/kg/injection, schedule: Q01DX005 (ip), vehicle: water) 92 % of control; (endpoint: mean survival time, dose: 100.0 mg/kg/injection, schedule: Q01DX005 (ip), vehicle: distilled water + Tween-80) 92 % of control. The T/C by setting is: (endpoint: mean survival time, dose: 100.0 mg/kg/injection, schedule: Q01DX005 (ip), vehicle: water) 103 % of control; (endpoint: mean survival time, dose: 200.0 mg/kg/injection, schedule: Q01DX005 (ip), vehicle: distilled water + Tween-80) 100 % of control; (endpoint: mean survival time, dose: 200.0 mg/kg/injection, schedule: Q01DX005 (ip), vehicle: water) 96 % of control.
As for `CCCCCCCCCCCC(=O)OCC1OC2C(Oc3nc(=N)ccn32)C1OC(=O)CCCCCCCCCCC` (stereo not given), the T/C by setting is: (endpoint: mean survival time, dose: 12.5 mg/kg/injection, schedule: Q01DX009 (ip), vehicle: water) 168 % of control; (endpoint: mean survival time, dose: 25.0 mg/kg/injection, schedule: Q01DX009 (ip), vehicle: water) 247 % of control; (endpoint: mean survival time, dose: 50.0 mg/kg/injection, schedule: Q01DX009 (ip), vehicle: water) 187 % of control; (endpoint: mean survival time, dose: 100.0 mg/kg/injection, schedule: Q01DX009 (ip), vehicle: water) 98 % of control.
As to `C=CCC(O)CCCC` (stereo not given), the T/C under setting [1] was 103 % of control, the T/C under setting [2] was 103 % of control and the T/C under setting [3] is 103 % of control.
With `NC(=S)N1N=C(c2cccc([N+](=O)[O-])c2)CCC1=O`, the T/C runs as follows: under setting [4], 111 % of control; under setting [5], 111 % of control; under setting [6], 107 % of control.
For the compound `C#CCOCCC(C(C)=O)C(=O)OCC` (stereo not given), the T/C runs as follows: under setting [7], 104 % of control; under setting [8], 100 % of control.
For `NCS(=O)(=O)O`, the T/C under setting [9] was 98 % of control.
On to `O=S(=O)(c1ccc(Cl)cc1)N(Cl)Cl`, for which the T/C was 103 % of control under setting [9] and 101 % of control under setting [10].
In the case of `C=C1CC(O)C2C(=C)C(=O)OC2C2C(C)C(=O)CC12` (stereo not given), the T/C is, setting by setting: (endpoint: mean survival time, dose: 6.25 mg/kg/injection, schedule: Q01DX009 (ip), vehicle: Klucel (hydroxypropylcellulose) (HPC)) 95 % of control; (endpoint: mean survival time, dose: 12.5 mg/kg/injection, schedule: Q01DX009 (ip), vehicle: Klucel (hydroxypropylcellulose) (HPC)) 100 % of control; (endpoint: mean survival time, dose: 25.0 mg/kg/injection, schedule: Q01DX009 (ip), vehicle: Klucel (hydroxypropylcellulose) (HPC)) 105 % of control.
`CCC[CH2][Sn]([CH2]C)([CH2]C)[O]C(C)=O`: the T/C (endpoint: mean survival time, dose: 2.5 mg/kg/injection, schedule: Q01DX009 (ip), vehicle: saline with Tween-80) is 104 % of control and the T/C (endpoint: mean survival time, dose: 5.0 mg/kg/injection, schedule: Q01DX009 (ip), vehicle: saline with Tween-80) was 102 % of control.
For `CC(O)CN1CCN(CC(C)O)CC1.[Cl][Pt+2][Cl]` (stereo not given), the T/C was 105 % of control (endpoint: mean survival time, dose: 3.13 mg/kg/injection, schedule: Q04DX003 (ip), vehicle: saline with Tween-80); 102 % of control (endpoint: mean survival time, dose: 6.25 mg/kg/injection, schedule: Q04DX003 (ip), vehicle: saline with Tween-80); 105 % of control (endpoint: mean survival time, dose: 12.5 mg/kg/injection, schedule: Q04DX003 (ip), vehicle: saline with Tween-80); 102 % of control (endpoint: mean survival time, dose: 25.0 mg/kg/injection, schedule: Q04DX003 (ip), vehicle: saline with Tween-80); 97 % of control (endpoint: mean survival time, dose: 50.0 mg/kg/injection, schedule: Q04DX003 (ip), vehicle: saline with Tween-80).
Turning to `CCCCCOC(=O)CC(N)C(=O)OCCCCC` (stereo not given), the T/C by setting is: under setting [1], 96 % of control; under setting [2], 100 % of control; under setting [4], 93 % of control; under setting [3], 91 % of control; under setting [5], 93 % of control.
Consider `C1N2CN3CN1CN(C2)C3.[Cl][Pt+2][Cl]`, for which the T/C by setting is: (endpoint: mean survival time, dose: 18.75 mg/kg/injection, schedule: Q04DX003 (ip), vehicle: saline) 103 % of control; (endpoint: mean survival time, dose: 37.5 mg/kg/injection, schedule: Q04DX003 (ip), vehicle: saline) 106 % of control; (endpoint: mean survival time, dose: 75.0 mg/kg/injection, schedule: Q04DX003 (ip), vehicle: saline) 101 % of control; (endpoint: mean survival time, dose: 150.0 mg/kg/injection, schedule: Q04DX003 (ip), vehicle: saline) 107 % of control; (endpoint: mean survival time, dose: 300.0 mg/kg/injection, schedule: Q04DX003 (ip), vehicle: saline) 103 % of control.
Turning to `c1ccc(CNc2ncnc3[nH]ncc23)cc1`, the T/C runs as follows: (endpoint: mean survival time, dose: 1.12 mg/kg/injection, schedule: Q01DX Z (ip), vehicle: carboxymethylcellulose (CMC)) 100 % of control; (endpoint: mean survival time, dose: 2.25 mg/kg/injection, schedule: Q01DX Z (ip), vehicle: carboxymethylcellulose (CMC)) 103 % of control; (endpoint: mean survival time, dose: 4.5 mg/kg/injection, schedule: Q01DX Z (ip), vehicle: carboxymethylcellulose (CMC)) 100 % of control; (endpoint: mean survival time, dose: 9.0 mg/kg/injection, schedule: Q01DX Z (ip), vehicle: carboxymethylcellulose (CMC)) 102 % of control.
With `CCc1ccc(OC(C)=O)cc1`, the T/C reads like this: (endpoint: mean survival time, dose: 50.0 mg/kg/injection, schedule: Q01DX009 (ip), vehicle: Klucel (hydroxypropylcellulose) (HPC)) 98 % of control; (endpoint: mean survival time, dose: 100.0 mg/kg/injection, schedule: Q01DX009 (ip), vehicle: Klucel (hydroxypropylcellulose) (HPC)) 98 % of control; (endpoint: mean survival time, dose: 200.0 mg/kg/injection, schedule: Q01DX009 (ip), vehicle: Klucel (hydroxypropylcellulose) (HPC)) 90 % of control.
As for `CCC1(O)C(=O)OCc2c1cc1n(c2=O)Cc2cc3ccc(N(C)C)cc3nc2-1` (stereo not given), the T/C was 103 % of control (endpoint: median survival time, dose: 10.0 mg/kg/injection, schedule: Q04DX002 (ip), vehicle: saline with Tween-80); 106 % of control (endpoint: median survival time, dose: 20.0 mg/kg/injection, schedule: Q04DX002 (ip), vehicle: saline with Tween-80); 106 % of control (endpoint: median survival time, dose: 40.0 mg/kg/injection, schedule: Q04DX002 (ip), vehicle: saline with Tween-80); 112 % of control (endpoint: median survival time, dose: 80.0 mg/kg/injection, schedule: Q04DX002 (ip), vehicle: saline with Tween-80).
For `O=C(CCBr)c1ccc(Cl)cc1`, for the setting “endpoint: mean survival time, dose: 100.0 mg/kg/injection, schedule: Q01DX009 (ip), vehicle: saline sonified”, the T/C was 97 % of control.
As for `COc1ccc2c(c1O)CNCC2c1ccc(O)c(O)c1` (stereo not given), the T/C is, setting by setting: (endpoint: mean survival time, dose: 75.0 mg/kg/injection, schedule: Q01DX001 (ip), vehicle: saline) 106 % of control; (endpoint: mean survival time, dose: 150.0 mg/kg/injection, schedule: Q01DX001 (ip), vehicle: saline) 106 % of control; (endpoint: mean survival time, dose: 300.0 mg/kg/injection, schedule: Q01DX001 (ip), vehicle: saline) 108 % of control.
Regarding `O=C(O)C1=CCCC(O)CC1` (stereo not given), the T/C under setting [9] is 95 % of control; the T/C (endpoint: mean survival time, dose: 100.0 mg/kg/injection, schedule: Q04DX002 (ip), vehicle: saline with Tween-80) was 100 % of control; the T/C under setting [10] was 94 % of control; the T/C (endpoint: mean survival time, dose: 200.0 mg/kg/injection, schedule: Q04DX002 (ip), vehicle: saline with Tween-80) is 96 % of control; the T/C under setting [11] is 95 % of control; the T/C (endpoint: mean survival time, dose: 400.0 mg/kg/injection, schedule: Q04DX002 (ip), vehicle: saline with Tween-80) is 103 % of control.
Take `N\C([S-])=N/N=C\C(=N/N=C(\N)[S-])C(O)C(O)C(O)CO.[Rh+2]` (stereo not given): the T/C under setting [7] was 98 % of control; the T/C under setting [8] was 96 % of control; the T/C (endpoint: mean survival time, dose: 400.0 mg/kg/injection, schedule: Q01DX001 (ip), vehicle: saline) was 96 % of control.
Take `Cc1ccc(S(=O)(=O)N/N=C2/CC3CCC(C)(C2)C3)cc1` (stereo not given): the T/C under setting [6] is 94 % of control.
Regarding `Nc1ccc2c(c1)C(=O)OC2(C(F)(F)F)C(F)(F)F`, the T/C is, setting by setting: under setting [9], 104 % of control; under setting [10], 101 % of control; under setting [11], 102 % of control.
In the case of `C=C1C(=O)OC2CCCCCCC12` (stereo not given), the T/C reads like this: (endpoint: mean survival time, dose: 50.0 mg/kg/injection, schedule: Q01DX009 (ip), vehicle: saline) 102 % of control; (endpoint: mean survival time, dose: 100.0 mg/kg/injection, schedule: Q01DX009 (ip), vehicle: saline) 97 % of control; (endpoint: mean survival time, dose: 200.0 mg/kg/injection, schedule: Q01DX009 (ip), vehicle: saline) 100 % of control.

The values above are taken from PubChem BioAssay AID256 (DTP/NCI, 2004).
